Tested on: corneas of colored rabbit after excimer laser abrasion
Test: accelerating activity for corneal wound healing after excimer laser treatment (histological observation of corneal slices)
Type: in vivo
Settings: eye drop 100 μg/ml; for epithelium regeneration in the excimer-laser irradiated portion / inflammatory changes / thickness of the regenerated epithelium / vacuolation and fibroblast growth in the tunica propria / under the epithelium: single droplet twice a day for 5 to 7 days, optical microscope
Experimental: The following tests were performed with respect to the accelerating activity for the corneal wound healing after excimer laser treatment.
HP 1 and HP 2 were diluted with 1.2 ml of an oxyglutathion eye-perfusion/washing solution (trade name: BSS plus, manufactured by Santen Seiyaku) to obtain a diluted solution in a final concentration of 0.1 mg/ml. 1000 μg/ml of EGF was diluted with 1 ml of the oxyglutathion eye-perfusion/washing solution to obtain a diluted solution in a final concentration of 0.1 mg/ml. FN was diluted with 10 ml of the oxyglutathion eye-perfusion/washing solution to obtain a diluted solution in a final concentration of 0.1 mg/ml.
A colored rabbit was used as a test animal. The following surgical operation was applied to the rabbit.
An excimer laser was radiated to the corneas of both eyes of the rabbit under the condition of 180 mj/10 nsec (10 Hz) per pulse. By this radiation, the surface of central corneal parenchyma was cut off by abrasion in the form of a meniscus having a diameter of 4.5 mm (9.9 diopter) and a maximum center-depth of 70 μm. The excimer laser was radiated by using Omunimed (trade name) manufactured by Summit (U.S.A.).
Each of the aforementioned samples was administered to both eyes twice a day. A single droplet (about 50 μl) was administrated once in the morning and the afternoon for 5 to 7 days.
As Comparative examples, eye drops were prepared by dissolving the aforementioned samples in the oxyglutathion eye perfusion/washing solution in accordance with Table 2 and administered to both eyes of the rabbit.
After completion of droplet administration, right and left eyes were taken out from the rabbit and fixed with a glutathion aldehyde/formalin fixing solution. After the fixation, each cornea including a laser irradiated portion and a non-irradiated portion were excised out. Then, paraffin blocks were prepared in accordance with a customary method and thin-film slices of 5 μm thick were prepared by means of a microtome. The obtained corneal slices were stained with H.E. (hematoxylin-eosin) and then subjected to special staining such as PAS or trichrome.

Compound: CC[C@H](C)[C@H](NC(=O)[C@H](Cc1ccc(O)cc1)NC(=O)[C@@H]1CCCN1C(=O)[C@H](CCCNC(=N)N)NC(=O)[C@H](CCCNC(=N)N)NC(C)=O)C(=O)N[C@@H](CC(C)C)C(=O)O [HP2, N-acetyl-Arg-Arg-Pro-Tyr-Ile-Leu-OH]
- overall corneal wound healing accelerating / corneal therapeutic effect (conclusion) (after excimer laser treatment): confirmed to have an corneal wound healing accelerating effect
- epithelium regeneration in the excimer-laser irradiated portion: observed in the entire irradiated portion
- inflammatory changes: not observed
- thickness of the regenerated epithelium: nonuniform
- vacuolation and fibroblast growth in the tunica propria / under the epithelium: Vacuolation and fibroblast growth were observed

Compound: EGF: epithelial cell growth factor, manufactured by Bio Medical Technologies
- epithelium regeneration in the excimer-laser irradiated portion: observed in the entire irradiated portion
- inflammatory changes: inflammatory changes were observed
- thickness of the regenerated epithelium: nearly uniform
- vacuolation and fibroblast growth in the tunica propria / under the epithelium: vacuolation and fibroblast growth were observed

Compound: fibronectin [FN]
- epithelium regeneration in the excimer-laser irradiated portion: observed in the entire irradiated portion
- inflammatory changes: inflammatory changes were observed
- thickness of the regenerated epithelium: nonuniform
- vacuolation and fibroblast growth in the tunica propria / under the epithelium: relatively significant

— patent publication US5846940A, “Corneal therapeutic agent” (Okamoto; Sinseiro, priority 1994, dated 1998)
